This is an account of results in patent publication EP0369744B1, “Xanthine derivatives, process for their preparation and pharmaceutical compositions” (SMITHKLINE BEECHAM PHARMA GmbH, priority 1988, dated 1990).

SMILES strings stand for the structures.

The test concerns gerbils. The test can be described thus: Delayed neuronal death in gerbils after transient forebrain ischaemia. Type of test: in vivo. As for the experimental part: Ischaemia was produced in adult male gerbils by occlusion of both common carotid arteries for 3 minutes under halothane/nitrous oxide anaesthesia. During surgery the animals were placed upon a warming blanket. The ischaemia led to neuronal degeneration and to disturbed brain function.
Brains were removed 2 weeks later and 12 µm thick coronal slices were examined light microscopically for neuronal degeneration.
Three groups of animals were used: • 1. sham ligated controls • 2. solvent-treated ligated controls • 3. compound-treated ligated animals The compound was administered 1 hour before the ligation period.
Means ± SEM (n) of histopathological score [HPS] which reflects the degree of neuronal damage in the hippocampal CA1 field: 0 = no damaged neurons 1 = mild necrosis 2 = moderate necrosis 3 = severe necrosis 4 = complete necrosis

For `O=c1c2[nH]cnc2n(CC2CC2)c(=O)n1CC1CC1` [Example 1, 1,3-Di-cyclopropylmethyl xanthine], the “ischaemia induced neuronal degeneration (conclusion)” value is “significantly prevented ischaemia induced neuronal degeneration”.
